In assay [1] the test system is 3C6 Th1 cells. Put plainly: IL-2 production by 3C6 Th1 cells co-cultured with transfected L cells (CTLL indicator cells). It counts as cell-based, mouse. The following applies: L cells expressing MHC molecules with kss Eβ chains. The protocol:
Production of IL-2 and IL-3 in response to L cell transfectants in the presence or absence of added peptide was measured as described in Ronchese et al., Nature, 329, 254-6 (1987b). In brief, 2−5×10^4 T cells were incubated with 2−5×10^4 transfected L cells in the wells of 96-well flat bottom culture plates in 200 μl of complete medium with or without various concentrations of peptide antigen. Supernatants were collected after 24 hours and assayed for IL-2 content using CTLL indicator cells, or for IL-3 content using FDC.1 cells. IL-2 and IL-3 units were calculated as the inverse of the dilution giving 50% of the maximum ^3H-thymidine incorporation by CTLL (IL-2) or FDC.1 (IL-3) cells observed with reference IL-2 and IL-3 preparations. Proliferative responses were measured by assessing ^3H-thymidine incorporation between 48-66 hrs of culture. For experiments in which the data are expressed as “% max” or “% alloresponse”, the actual absolute 100% responses were: IL-2 alloresponse, 10-40 units/ml; IL-3 alloresponse, 100-500 units/ml; IL-2 response to EαEβ^k plus PCC peptide, 150-300 units/ml; IL-3 response to EαEβ^k plus PCC peptide, 1000-10,000 units/ml; IL-2 response to fixed cells bearing EαEβ^k plus PCC peptide, 30-50 units/ml; IL-3 response to fixed cells bearing EαEβ^k plus PCC peptide, 50-200 units/ml. […]

Assay [2] deals with MHC molecules with kss Eβ chains. Kind of assay: Peptide binding to cell-associated class II MHC molecules using biotinylated peptides. The arrangement: species or system mouse. On the procedure: A modified version of the assay described in Busch et al., Int. Immunol., 2, 443-51 (1990), was used to measure peptide binding to cell-associated class II MHC molecules. After extensive washing in phosphate buffered saline (PBS)-1% bovine serum albumin (BSA), 2×10^5 DAP.3 cells or DAP.3 transfectants expressing various EαEβ molecules were incubated at 37° C. in 200 μl of PBS-2% FCS containing the indicated concentration of biotinylated peptide. In the competition experiments competitors were added at the same time as labeled peptide and at the indicated concentrations. After 4 hours, the cells were washed and stained with a sandwich of FITC-avidin (Vector), biotinylated-anti-avidin (Vector), and FITC-avidin (Vector). After washing, the cells were analyzed on a FAScan flow cytometer for fluorescence. Only viable cells were considered in the analysis, as determined by PI staining. The data are expressed as net mean fluorescence intensity (MFI), calculated by subtracting from the actual MFI the MFI obtained by staining in the absence of biotinylated-peptide. Percent inhibition in the competition experiments was calculated as: % of I=(net MFI without competitor−net MFI with competitor)/(net MFI without […]).

Experimental findings from patent publication US6900024B2, “T cell receptor ligands and methods of using same” (The United States of America as represented by the …, priority 1993, dated 2005) are described below.

Ends that are not written are not given here. * marks the point of attachment. long‑chain biotin = O=C(CCCC[C@@H]1SC[C@@H]2NC(=O)N[C@@H]21)NCCCCCC(=O)*

Regarding “HEL 81-96: hen egg lysozyme (HEL) peptide 81-96, with NH2-terminal long-chain biotin in FIG. 3 ({long‑chain biotin}-SALLSSDITASVNCAK; UniProt P00698 99-114, looked up, fragment)”, the “effect of peptide on alloreactive stimulation of IL-2 production” value in assay [1] is listed as “lacked ability to inhibit alloreactive stimulation of IL-2 production”. Also, the “direct binding of biotinylated peptide to MHC molecules with kss chains” value in assay [2] (FIG. 3A) was “bound well to the MHC molecules with kss chains”. For “HEL 46-61: hen egg lysozyme (HEL) peptide 46-61”, the “binding to MHC molecule with kss chains, competition for binding of biotinylated-DASP” value in assay [2] (biotinylated-DASP 25 μM, FIG. 2A) is reported as “able to bind the MHC molecule with kss chains to a similar extent as the inhibitory PCC 81-104 peptide”.
